Data published in US20020007060A1, “Reverse hydroxamate inhibitors of matrix metalloproteinases” (priority 1998, published 2002).
pIC50: −log10 of the molar value.

Key:
[1] = molecular target: T1, Recombinant truncated stromelysin (human sequence) (Homo sapiens, UniProt P08254); assay: Determination of Stromelysin Inhibition; type: biochemical; details: cleavage of thiopeptide ester substrate Ac-Pro-Leu-Gly-[2-mercapto-4-methyl-pentanoyl]-Leu-Gly-OEt, DTNB read at 405 nm, 30 minute assay at ambient temperature, 50 mM MES/NaOH 6.5
T1 construct: made in house; host or cells: E. coli
T1 sequence (P08254 100-272 limits assumed): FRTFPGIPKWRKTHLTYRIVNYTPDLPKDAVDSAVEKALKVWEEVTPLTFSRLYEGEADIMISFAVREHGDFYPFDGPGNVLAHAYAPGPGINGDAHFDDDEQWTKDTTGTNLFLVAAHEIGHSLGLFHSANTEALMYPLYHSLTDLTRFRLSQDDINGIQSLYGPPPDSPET
Description: The efficacy of the compounds of this invention as matrix metalloproteinase inhibitors was determined by measuring the inhibition of stromelysin. The inhibition of stromelysin by the compounds of this invention was determined as follows: Recombinant truncated stromelysin (human sequence) produced in E. coli was prepared by expression and purification of the protein as described by Ye et al. (Biochemistry, 1992, 31, 11231-11235, which is incorporated herein by reference). The enzyme was assayed by its cleavage of the thiopeptide ester substrate Ac-Pro-Leu-Gly-[2-mercapto-4-methyl-pentanoyl]-Leu-Gly-OEt as described by Weingarten and Feder (Anal. Biochem., 1985, 147, 437-440 (1985), which is incorporated herein by reference) as a substrate of vertebrate collagenase. The reported conditions were modified to allow assays to be carried out in a microtiter plate. Upon hydrolysis of the thioester bond, the released thiol group reacted rapidly with 5,5′-dithio-bis(2-nitrobenzoic acid) (DTNB) to produce a yellow color which was measured by a microtiter plate reader set at 405 nm. The rates of cleavage of the substrate by stromelysin in the presence or absence of inhibitors were measured in a 30 minute assay at ambient temperature. Solutions of the compounds in DMSO were prepared, and these were diluted at various concentrations into the assay buffer (50 mM MES/NaOH 6.5 with 10 mM CaCl2 and 0.2% Pluronic F-68), which was also used for dilution of the enzyme and substrate. The potency of the compounds [IC50] was calculated from the inhibition/inhibitor concentration data.

Row | Structure (SMILES) | pIC50 [1] | melting point [°C]
1 | CN1C(=O)N(CC(COc2ccc(-c3ccc(C#N)cc3)cc2)N(O)C=O)C(=O)C1(C)C (racemic) [Example 4, (±)-N-[1-[[(4′-cyano-[1,1′-biphenyl]-4-yl)oxy]methyl]-2-(3,4,4-trimethyl-2,5-dioxoimidazolidin-1-yl)ethyl]-N-hydroxyformamide] | 8.04 | 65 to 67
2 | CN1C(=O)N(CCC(COc2ccc(-c3ccc(C#N)cc3)cc2)N(O)C=O)C(=O)C1(C)C (racemic) [Example 5, (±)-N-[1-[[(4′-cyano-[1,1′-biphenyl]-4-yl)oxy]methyl]-3-(3,4,4-trimethyl-2,5-dioxoimidazolidiny-1-yl)propyl]-N-hydroxyformamide] | 7.77 | 68 to 70
3 | CC(C)CC(COc1ccc(-c2ccc(C#N)cc2)cc1)N(O)C=O (racemic) [Example 7, (±)-N-[1-[[(4′-cyano-[1,1′-biphenyl]-4-yl)oxy]methyl]-3-methylbutyl]-N-hydroxyformamide] | 6.92 | 112 to 113
4 | CN1C(=O)N(CC(COc2ccc(-c3ccc(S(N)(=O)=O)cc3)cc2)N(O)C=O)C(=O)C1(C)C (centres unmarked) [Example 114, N-[1-[[[4′-(aminosulfonyl)[1,1′-biphenyl]-4-yl]oxy]methyl]-2-(3,4,4-trimethyl-2,5-dioxo-1-imidazolidinyl)ethyl]-N-hydroxyformamide] |  | 203 to 205
5 | CC1(C)NC(=O)N(CC(CS(=O)(=O)c2ccc(-c3ccc(OC(F)(F)F)cc3)cc2)N(O)C=O)C1=O (centres unmarked) [Example 115, N-[1-[[[4′-(trifluoromethoxy)[1,1′-biphenyl]-4-yl]sulfonyl]methyl]-2-(4,4-dimethyl-2,5-dioxo-1-imidazolidinyl)ethyl]-N-hydroxyformamide] |  | 195 to 197
